# Laboratory results published in patent US20240284918A1, “INSECT REPELLENT COMPOSITION AND A METHOD OF REPELLING INSECTS” (Åbo Akademi, priority 2021, published 2024).
# Columns and labels:
# [1] = tested on: Ixodes Ricinus (male, female and nymphs); test: Tick repellent testing (treated cylinder/stick and human volunteer's forearm); type: in vivo; conditions: stick test, FIG. 4
# [2] = tested on: Aedes albopictus; test: Mosquito repellent testing on human forearm in test cage (ASTM E951-83); type: in vivo; conditions: text summary of Table 4
# Protocol: The mosquitos used in this study were Aedes albopictus. Mosquito repellent activity of the tested samples (listed in Table 2) was assessed by using the test cage as described by Songkro et al (2012), in the American Society for Testing and Materials (ASTM) standard […]-83 Laboratory testing of non-commercial mosquito repellent composition on the skin. The sample was tested on human subject. The same volunteers tested all the formulations under laboratory conditions. According to the method described by Coucci and Müller (2018), 50 adult female Aedes albopictus mosquitoes were transferred into the mosquito proof enclosed cage with the help of aspirator tube. The compositions to be tested were applied to the forearm ([…]) of the volunteers. The applied hand was introduced into the cage and the number of bites was recorded. After every 30 minutes the volunteer hands were subjected to the cage for 5 minutes and the numbers of mosquito bites were noted. Same procedure was implemented for control. Control study is done by placing the forearm in cage without application of tested sample. Before starting each replication, the mosquitoes' propensity to bite is assessed by inserting an untreated forearm into the cage. […] According to this procedure different compositions were tested by applying on the forearm with fresh mosquitoes every time of testing.
# [3] = tested on: Ixodes larvae, nymph forms and adults (female and male); test: Field testing, treated tick sheet dragging; type: in vivo; conditions: treated cotton sheet dragged 35 x 10 m; 5% vanillin in all FA and HFA solutions; vs commercial product Punkkiassa (19% IR3535)
# Text: Tick-dragging method was adopted to study the effectiveness of the product in repelling ticks in their natural habitat in Ruissalo, Turku. A square of 1 m^2 cotton sheet was divided in three parallel divisions and the borders were marked with pencil: 100*45 cm division on both sides (A and B) and a 100*10 cm neutral strip in the middle (N). Both A and B were both treated with a solution from a solution test pair (or left untreated for control drags) from that side of the sheet that would face the ground during dragging. The neutral zone was always left untreated. The evenly sprayed solution was let settle on the sheet for ˜15 minutes before the first drag. The sheet was dragged for 10 m with the treated side down with moderate pace in an even, tick-friendly biotope. After every 10 meter drag, the treated side was inspected for Ixodes larvae, nymph forms and adults (female and male). Number of individuals in every (4) form per department (A, B or N) was counted. Every test pair/sheet was dragged 35 times during the same day between 08:00 AM and 02:00 PM. No new solution was added to the sheet during the day. The time of start for every draw was checked. We tested different product types for field studies like FA (5, 10, 20%) and HFA (10 & 20%) and also included a commercial tick repellent (Punkkiassa) as a positive control. […]
# [4] = tested on: nymphs and the female ticks of the Ixodus ricinu species; test: Tick repellency of IR3535 (test results received from Entostudio laboratory, Italy); conditions: in vivo
structure (smiles),measurement,setting,value
C=C1CC[C@H]2O[C@]2(C)CC[C@@H]2[C@@H]1CC2(C)C [Caryophyllene oxide],tick repellent activity (in words),[1],not very effective
"CC(=O)CC/C=C(\C)CC/C=C(\C)CCC=C(C)C [FA, Farnesyl acetone]",mosquito repellent activity (in words),[2],efficient repellent activity
same,repellency of nymphs in field test (FIG. 5),[3],repelled nymphs very effectively compared to the commercial product
"CC(=O)CCCC(C)CCCC(C)CCCC(C)C (stereo not drawn) [HFA, 6,10,14-trimethyl-pentadecanone]",mosquito repellent activity (in words),[2],efficient repellent activity
same,repellency of nymphs in field test (FIG. 5),[3],repelled nymphs very effectively compared to the commercial product
"CCCCN(CCC(=O)OCC)C(C)=O [IR3535, 3-[N-butyl-N-acetyl]-aminopropionic acid, ethyl ester]",repellency of nymphs and female ticks,[4],does not repel the nymphs and the female ticks
